Here are results for two compounds from patent publication US12357615B2, “Compositions for the treatment of brain tumors” (Kembi Therapeutics Pty Ltd, priority 2018, dated 2025).

The test system of test [1] is T98G AR positive glioblastoma multiforme cell line. The experiment in a line: GBM tumor cell line inhibition assay (colony formation), T98G. Particulars: Homo sapiens; T98 (T98G), AR positive GBM cells, 10-12 days; read-out: GI50 (growth inhibition, colony formation). The test is classed as cell-based. How it is done:
(§1) The term “percent colony formation” as used herein is the number of colonies after treatment with seviteronel and normalized to the number of colonies formed in the absence of seviteronel.
(§2) AR positive and AR negative GBM cells were plated at clonal density and 1-2 days later were treated with the test compounds at the indicated concentrations. After 10-12 days, the plates were stained with crystal violet. The number of colonies were then counted and normalized to the number of colonies formed in the absence of the test compounds. The results were plotted using Graphpad Prism.

Test [2] has as its system AM38 AR negative glioblastoma multiforme cell line. The experiment in a line: GBM tumor cell line inhibition assay (colony formation), AM38. The test is classed as cell-based. Particulars: AM38, AR negative GBM cells. How it is done:
as §1, §2

Test [3] deals with 8MGBA AR negative cell line. The experiment in a line: Clonogenic survival after radiation with seviteronel, 8MGBA. Format: cell-based. To be noted: seviteronel 2.5-5 uM 24 hours before radiation 0-8 Gy. An excerpt: (§3) The term “surviving fraction” as used herein is the fraction of cells that retain their reproductive integrity after radiation normalized to the fraction of cells seeded and the colonies formed in the absence of irradiation
(§4) The term “enhancement ratio” as used herein is the ratio of the Dmid (the area under the radiation survival curve, which reflects the effectiveness of radiation) in the absence of seviteronel divided by the Dmid in the presence of seviteronel.
(§5) AR positive or negative GBM cell lines were treated with seviteronel (2.5-5 uM) for 24 hours prior to treatment with a single fraction of ionizing radiation (0-8 Gy) and then replated at clonal density. After 10-14 days, cells were stained with crystal violet and colonies were counted and normalized to conditions without radiation. Enhancement ratios were calculated by dividing the Dmid (the area under the clonogenic-survival curve) of control conditions by the Dmid of the seviteronel-treated cells.

Test [4] has as its system AM38 AR negative cell line. The experiment in a line: Clonogenic survival after radiation with seviteronel, AM38. The test is classed as cell-based. To be noted: seviteronel 2.5-5 uM 24 hours before radiation 0-8 Gy.
Description: as §3, §4, §5

In test [5] the test system is T98G AR positive cell line. The experiment in a line: Clonogenic survival after radiation with seviteronel, T98G. The test is classed as cell-based. To be noted: 5 μM seviteronel 24 hours before radiation 0-8 Gy.
Description: as §3, §4, §5

For test [6], the system named is LN18 AR positive cell line. Description: Clonogenic survival after radiation with seviteronel, LN18. The test is classed as cell-based. To be noted: 2.5 μM seviteronel 24 hours before radiation 0-8 Gy.
Description: as §3, §4, §5

The test system of test [7] is T98G xenograft. The experiment in a line: Mouse T98G xenograft model, seviteronel and radiation therapy. Format: in vivo. As to the method: T98G cancer cells were implanted into the flanks of DHT-bearing female C.B-17 SCID mice. After tumors reached approximately 100 mm3 in size, tumors were randomized into control, seviteronel alone (75 mg/kg for 30 days), radiation alone (2 Gy×6 fractions), or combined radiation and seviteronel treatment groups. Tumor size was measured over time and time to tumor doubling was estimated using the Kaplan-Meyer method. The results were plotted using Graphpad Prism.

Test [8] relates to 8MGBA AR negative glioblastoma multiforme cell line. Description: GBM tumor cell line inhibition assay (colony formation), 8MGBA. Format: cell-based. Particulars: AR negative GBM cells. As to the method: as §1, §2
Test [9] relates to T98G xenograft. Particulars: implanted DHT pellets versus no DHT, female C.B-17 SCID mice. As to the method: T98G cancer cells were implanted into the flanks female C.B-17 SCID mice with or without implanted DHT pellets. Tumor size was measured over time. The results were plotted using Graphpad Prism.

For orientation: GI50 means the concentration giving 50% growth inhibition. On to `CC(C)[C@](O)(c1ccc2cc(OC(F)F)c(OC(F)F)cc2c1)c1c[nH]nn1` [seviteronel], for which the GI50 in test [1] is 4 µM. In addition, the effect on growth entry in [2] and in test [8] was “little to no effect” in each case. Moreover, the “enhancement ratio (Dmid without / with seviteronel)” value in test [3] was found to be 1.0; in test [4], 1.03; in [5] it was 1.32; in [6], 1.5. The “tumor volume increase over 35 days” value was “approximately 50%” in the test on T98G xenograft [7] (seviteronel 75 mg/kg days 1-30 plus radiation therapy 2 Gy x 6 fractions days 2-7) and 2-3 fold in the test on T98G xenograft [7] (seviteronel alone, 75 mg/kg for 30 days, untreated approximately 5 fold). The “mice with doubling in tumor volume after 30 days” value in the test with T98G xenograft [7] (seviteronel 75 mg/kg plus radiation therapy 2 Gy x 6 fractions) is on record as “none”. In the test on T98G xenograft [7] (seviteronel alone, 75 mg/kg for 30 days, untreated within 15 days), the “time to tumor doubling” value is reported as ≤ 30 days.

For the compound `C[C@]12CCC(=O)C[C@@H]1CC[C@@H]1[C@@H]2CC[C@]2(C)[C@@H](O)CC[C@@H]12` [DHT, Dihydrotestosterone], the “tumor volume over time” value in the test with T98G xenograft [9] is listed as “increased more rapidly”.
